From the supplement of paper PMC10307832

Legend:
Assay in all cases: relative viability (nuclei count vs DMSO), 5 days (fraction); higher = more cells survive
Fedratinib + Trametinib = compound: Cc1cnc(Nc2ccc(OCCN3CCCC3)cc2)nc1Nc1cccc(S(=O)(=O)NC(C)(C)C)c1 [Fedratinib] + CC(=O)Nc1cccc(-n2c(=O)n(C3CC3)c(=O)c3c(Nc4ccc(I)cc4F)n(C)c(=O)c(C)c32)c1 [Trametinib] (partner 0.02 µM)
In short: (§1)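 Relative viability equals treated-well nuclei counts divided by vehicle-well nuclei counts. Counts came from 4× images of lung cancer cell lines grown in 1536-well plates for 5 days after pin-tool dosing on the day after seeding. Dosing used one drug alone or a fixed anchor-drug dose plus five library-drug doses (not always all listed) in √10 steps, and values are medians of duplicate plates.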

Fedratinib + Pictilisib = compound: Cc1cnc(Nc2ccc(OCCN3CCCC3)cc2)nc1Nc1cccc(S(=O)(=O)NC(C)(C)C)c1 [Fedratinib] + CS(=O)(=O)N1CCN(Cc2cc3nc(-c4cccc5[nH]ncc45)nc(N4CCOCC4)c3s2)CC1 [Pictilisib] (partner 1 µM)
In short: as §1

GW-2580 + Pemetrexed = compound: COC1=CC=C(C=C1)COC2=C(C=C(C=C2)CC3=CN=C(N=C3N)N)OC [GW-2580] + Nc1nc2[nH]cc(CCc3ccc(C(=O)N[C@@H](CCC(=O)O)C(=O)O)cc3)c2c(=O)[nH]1 [Pemetrexed] (partner 0.2 µM)
In short: as §1

Fedratinib + Foretinib = compound: Cc1cnc(Nc2ccc(OCCN3CCCC3)cc2)nc1Nc1cccc(S(=O)(=O)NC(C)(C)C)c1 [Fedratinib] + COc1cc2c(Oc3ccc(NC(=O)C4(C(=O)Nc5ccc(F)cc5)CC4)cc3F)ccnc2cc1OCCCN1CCOCC1 [Foretinib] (partner 0.25 µM)
In short: as §1

GW-2580 + Crizotinib = compound: COC1=CC=C(C=C1)COC2=C(C=C(C=C2)CC3=CN=C(N=C3N)N)OC [GW-2580] + C[C@@H](Oc1cc(-c2cnn(C3CCNCC3)c2)cnc1N)c1c(Cl)ccc(F)c1Cl [Crizotinib] (partner 1 µM)
In short: as §1

Fedratinib + Pemetrexed = compound: Cc1cnc(Nc2ccc(OCCN3CCCC3)cc2)nc1Nc1cccc(S(=O)(=O)NC(C)(C)C)c1 [Fedratinib] + Nc1nc2[nH]cc(CCc3ccc(C(=O)N[C@@H](CCC(=O)O)C(=O)O)cc3)c2c(=O)[nH]1 [Pemetrexed] (partner 0.2 µM)
In short: as §1

| Cell Line | relative viability (Fedratinib + Trametinib; first compound 0.1 µM) | relative viability (Fedratinib + Trametinib; first compound 0.3162 µM) | relative viability (Fedratinib + Trametinib; first compound 1 µM) | relative viability (Fedratinib + Pictilisib; first compound 0.1 µM) | relative viability (Fedratinib + Pictilisib; first compound 0.3162 µM) | relative viability (Fedratinib + Pictilisib; first compound 1 µM) | relative viability (GW-2580 + Pemetrexed; first compound 0.08 µM) | relative viability (GW-2580 + Pemetrexed; first compound 0.8 µM) | relative viability (GW-2580 + Pemetrexed; first compound 2.53 µM) | relative viability (GW-2580 + Pemetrexed; first compound 8 µM) | relative viability (Fedratinib + Foretinib; first compound 0.1 µM) | relative viability (Fedratinib + Foretinib; first compound 0.3162 µM) | relative viability (Fedratinib + Foretinib; first compound 1 µM) | relative viability (GW-2580 + Crizotinib; first compound 0.08 µM) | relative viability (GW-2580 + Crizotinib; first compound 0.8 µM) | relative viability (GW-2580 + Crizotinib; first compound 2.53 µM) | relative viability (GW-2580 + Crizotinib; first compound 8 µM) | relative viability (Fedratinib + Pemetrexed; first compound 0.1 µM) | relative viability (Fedratinib + Pemetrexed; first compound 0.3162 µM) | relative viability (Fedratinib + Pemetrexed; first compound 1 µM) |
| --- | --- | --- | --- | --- | --- | --- | --- | --- | --- | --- | --- | --- | --- | --- | --- | --- | --- | --- | --- | --- |
| NCI-H1651 | 0.778 | 0.826 | 0.859 | 0.566 | 0.591 | 0.0696 | 0.605 | 0.711 | 0.578 | 0.45 | 0.813 | 0.73 | 0.761 | 0.917 | 0.952 | 0.813 | 0.874 | 0.457 | 0.543 | 0.57 |
| NCI-H441 | 0.348 | 0.345 | 0.301 | 0.441 | 0.42 | 0.239 | 0.273 | 0.26 | 0.234 | 0.262 | 1.12 | 0.907 | 0.868 | 0.873 | 0.736 | 0.572 | 0.795 | 0.267 | 0.242 | 0.232 |
| LCLC-103H | 0.699 | 0.683 | 0.659 | 0.536 | 0.678 | 0.512 | 0.452 | 0.416 | 0.447 | 0.5 | 0.644 | 0.797 | 0.608 | 1.02 | 1.1 | 1.08 | 1.02 | 0.487 | 0.521 | 0.469 |
| LCLC-97TM1 | 0.234 | 0.202 | 0.18 | 0.196 | 0.169 | 0.15 | 0.158 | 0.143 | 0.179 | 0.172 | 1.03 | 0.913 | 0.935 | 0.554 |  | 0.303 | 0.284 | 0.204 | 0.151 | 0.169 |
| NCI-H1355 | 0.442 | 0.387 | 0.412 | 0.366 | 0.437 | 0.382 | 1.09 | 1.13 | 0.914 | 0.965 | 1.06 | 0.973 | 0.913 | 1.24 | 1.12 | 0.946 | 1.01 | 1.08 | 1.05 | 1.06 |
| HOP-62 | 0.355 | 0.392 | 0.393 | 0.809 | 0.709 | 0.531 | 0.394 | 0.285 | 0.303 | 0.288 | 1.1 | 0.982 | 0.959 | 0.986 | 1.12 | 0.926 | 0.98 | 0.26 | 0.244 | 0.322 |
| NCI-H2085 | 0.598 | 0.512 | 0.458 | 0.361 | 0.442 | 0.375 | 0.963 | 1.01 | 0.885 | 0.838 | 0.883 | 0.861 | 0.909 | 0.903 | 0.918 | 0.779 | 0.758 | 0.88 | 1.06 | 0.805 |
